Test results as given in patent US20220288065A1, “MONOCYCLIC AGONISTS OF STIMULATOR OF INTERFERON GENES STING” (The Scripps Research Institute, priority 2019, published 2022).

Test system: THP-1 Lucia ISG cells
Test: ISG-LUC activation assay (ISRE-luciferase assay)
Type: cell-based
Settings: Homo sapiens, THP1-Lucia ISG, activity score based upon potency and efficacy data, 24 hours
Source text: We have established a robust platform for identifying non-nucleotide small molecule STING agonists. This has been established using a primary assay involving a human THP-1 cell line carrying an IRF-inducible reporter with 5 copies of the IFN signaling response element. Counter screens, involving alternative reporter constructs, rodent cell-based assays, as well as cGAS and STING knock-out cell lines, are used to eliminate luciferase artifacts and ensure human-rodent cross species reactivity, as well as pathway selectivity. Biochemical assays, involving cGAS enzymatic activity and STING protein binding assays, are used to identify the specific target of identified hits.
Tissue culture. Wild-type (cat. no. thpl-isg) and STING KO (cat. no. thpd-kostg) THP-1-Lucia ISG cells were purchased from Invivogen and maintained in growth media consisting of RPMI 1640, 2 mM L-glutamine, 25 mM HEPES, 10% heat-inactivated fetal bovine serum (FBS), 1,000 units/ml penicillin, 1,000 μg/ml streptomycin, 0.25 μg/ml Amphotericin B, and 100 μg/ml zeocin unless otherwise stated.
ISRE-luciferase assay. THP-1 Lucia ISG cells were resuspended in low-serum growth media (2% FBS) at a density of 5×10^5 cells/ml and treated with test article or vehicle (DMSO). 50 μL of cells were seeded into each well of a 384-well white greiner plates and incubated for 24 hours. To evaluate expression of the luciferase reporter, 30 μl of Quanti-luc (Invivogen) detection reagent was added to each well and luminescence was read using an Envision plate reader (Perkin Elmer) set with an integration time of 0.1 seconds.

Compound	EC50 [µM]
C#Cc1cc(NC(=O)c2ccc(-c3ccncc3)nn2)c(C(=O)O)cc1F [Compound 1, lithium 4-ethynyl-5-fluoro-2-(6-(pyridin-4-yl)pyridazine-3-carboxamido) benzoate]	< 0.9
COC(=O)c1cc(F)c(F)cc1NC(=O)c1nnc(-n2ccnc2)cc1CN [Compound 2, methyl 2-(4-(aminomethyl)-6-(1H-imidazol-1-yl)pyridazine-3-carboxamido)-4,5-difluorobenzoate]	> 1
CS(=O)(=O)NCCNc1cc(C(=O)Nc2cc(F)c(F)cc2C(=O)O)nnc1-n1ccnc1 [Compound 6]	> 1
COC(=O)c1cc(F)c(F)cc1NC(=O)c1nnc(-n2ccnc2)cc1CO [Compound 7]	< 0.9
COC(=O)c1cc(F)c(F)cc1NC(=O)c1ccc(N)nn1 [Compound 8]	> 1
COC(=O)c1cc(F)c(F)cc1NC(=O)c1ccc(-c2cccnc2)nn1 [Compound 10]	> 1
CCOC(=O)Nc1ccc(C(=O)Nc2cc(F)c(F)cc2C(=O)O)nn1 [Compound 11]	> 1
COC(=O)c1cc(Cl)c(OC)cc1NC(=O)c1cc(N)ncn1 [Compound 12]	> 1
NC(=O)c1ccc(C(=O)Nc2cc(F)c(F)cc2C(=O)O)cn1 [Compound 13]	> 20
Nc1n[nH]cc1-c1ccc(C(=O)Nc2cc(F)c(F)cc2C(=O)O)nn1 [Compound 14]	> 1
COC(=O)c1cc(F)c(F)cc1NC(=O)c1ccc(-c2c[nH]nn2)nn1 [Compound 15]	< 0.9
COC(=O)c1cc(F)c(F)cc1NC(=O)c1cc(C(N)=O)cnn1 [Compound 16]	> 1
COC(=O)c1cc(F)c(F)cc1NC(=O)c1cc(N)cnn1 [Compound 20]	< 0.9
O=C(Nc1cc(F)c(F)cc1C(=O)O)c1ccc(-c2cccnc2)nn1 [Compound 21]	> 1
COC(=O)c1cc(Cl)c(Cl)cc1NC(=O)c1cn(-c2cnn(C(=O)OC(C)(C)C)c2)nn1 [Compound 22]	> 1
COC(=O)c1cc(Cl)c(Cl)cc1NC(=O)c1cn(-c2cn[nH]c2)nn1 [Compound 23]	< 0.9
COC(=O)c1cc(Cl)c(Cl)cc1NC(=O)c1ccc(-n2ccnc2)cn1 [Compound 25]	> 1
COC(=O)c1cc(Cl)c(Cl)cc1NC(=O)c1cc(CN)c(-n2ccnc2)nn1 [Compound 26]	< 0.9
COC(=O)c1cc(C#N)c(Cl)cc1NC(=O)c1ccc(-c2c(Br)cnn2C)nn1 [Compound 27]	> 20
N#Cc1n[nH]cc1-c1ccc(C(=O)Nc2cc(Cl)c(F)cc2C(=O)O)nn1 [Compound 28]	> 1
O=C(Nc1cc(Cl)c(F)cc1C(=O)O)c1ccc(-c2cnsc2)nn1 [Compound 29]	< 0.9

Compound	EC50 [µM]
COC(=O)c1cc(C#N)c(Cl)cc1NC(=O)c1ccc(-c2c[nH]nn2)nn1 [Compound 30]	< 0.9
O=C(Nc1cc(Cl)c(F)cc1C(=O)O)c1ccc(-c2ccns2)nn1 [Compound 31]	< 0.9
Cn1cc(C#N)c(-c2ccc(C(=O)Nc3cc(Cl)c(Cl)cc3C(=O)O)nn2)n1 [Compound 32]	> 20
C#Cc1cc(NC(=O)c2cn(-c3cn[nH]c3)nn2)c(C(=O)OC)cc1F [Compound 35]	< 0.9
C#Cc1cc(NC(=O)c2cn(-c3cn[nH]c3)nn2)c(C(=O)O)cc1F [Compound 36]	> 1
COC(=O)c1cc(Cl)c(Cl)cc1NC(=O)c1nc(-c2cn[nH]c2)no1 [Compound 37]	< 3
COC(=O)c1sc(C)cc1NC(=O)c1ccc(-n2ccnc2)nn1 [Compound 39]	> 1
COC(=O)c1cc(F)c(F)cc1NC(=O)c1cc(N)c(-n2ccnc2)nn1 [Compound 41]	< 0.9
COC(=O)c1cc(F)c(F)cc1NC(=O)c1cc(C)c(-n2ccnc2)nn1 [Compound 42]	> 1
C=Cc1cc(NC(=O)c2ccc(-c3cn[nH]c3)nn2)c(C(=O)O)cc1F [Compound 44]	< 0.9
COC(=O)c1cc(Cl)c(F)cc1NC(=O)c1ccncn1 [Compound 45]	> 1
C#Cc1cc(NC(=O)c2ccc(-c3cn[nH]c3)nn2)c(C(=O)O)cc1F [Compound 46]	> 1
COC(=O)c1cc(Cl)c(Cl)cc1NC(=O)c1cc(CNC(N)=O)c(-n2ccnc2)nn1 [Compound 48]	> 1
COC(=O)c1cc(Cl)c(Cl)cc1NC(=O)c1ccc(-c2c[nH]nn2)nn1 [Compound 50]	< 0.9
O=C(Nc1cc(Cl)c(Cl)cc1C(=O)O)c1ccc(-c2c[nH]nn2)nn1 [Compound 51]	> 1
O=C(Nc1cc(Cl)c(Cl)nc1C(=O)O)c1ccc(-c2cn[nH]c2)nn1 [Compound 52]	< 0.9
C#Cc1cc(NC(=O)c2ccc(-c3cn[nH]c3)nn2)c(C(=O)O)cc1Cl [Compound 53]	> 1
COC(=O)c1cc(Cl)c(F)cc1NC(=O)c1ccc(-c2cn[nH]c2)nn1 [Compound 57]	< 0.9
COC(=O)c1cc(F)c(F)cc1NC(=O)c1cc(NCc2ccc(OC)cc2)cnn1 [Compound 59]	< 0.9
COC(=O)c1cc(F)c(F)cc1NC(=O)c1ccc(-c2ccncc2)nn1 [Compound 60]	< 0.9

Further lines, results first:

EC50 [µM]	Compound
< 0.9	C#Cc1cc2nc(-c3ccc(-c4ccncc4)nn3)oc(=O)c2cc1F [Compound 3, 7-ethynyl-6-fluoro-2-(6-(pyridin-4-yl)pyridazin-3-yl)-4H-benzo[d][1,3]oxazin-4-one]
< 3	COC(=O)c1cc(F)c(F)cc1NC(=O)c1ccc(-n2ccnc2CO)nn1 [Compound 4]
> 1	COC(=O)c1cc(F)c(F)cc1NC(=O)c1ccc(C#N)nn1 [Compound 5]
> 1	COC(=O)c1cc(F)c(F)cc1NC(=O)c1ccc(CC#N)nn1 [Compound 9]
< 3	COC(=O)c1cc(F)c(F)cc1NC(=O)c1ccc(CO)nn1 [Compound 17]
> 1	COC(=O)c1cc(Cl)c(Cl)cc1NC(=O)c1ccc(N)nn1 [Compound 18]
> 1	COc1cncc(-c2ccc(C(=O)Nc3cc(F)c(F)cc3C(=O)O)nn2)c1 [Compound 19]
< 0.9	COC(=O)c1cc(Cl)c(Cl)cc1NC(=O)c1nnc(-n2ccnc2)cc1CN [Compound 24]
> 1	O=C(Nc1cc(Cl)c(Cl)nc1C(=O)O)c1ccc(-c2cc[nH]n2)nn1 [Compound 33]
< 0.9	COC(=O)c1nc(Cl)c(Cl)cc1NC(=O)c1ccc(-c2cc[nH]n2)nn1 [Compound 34]
< 0.9	C#Cc1cc(NC(=O)c2ccc(-c3cn[nH]c3)nn2)c(C(=O)O)nc1Cl [Compound 38]
< 0.9	COC(=O)c1cc(F)c(F)cc1NC(=O)c1ccc(-c2ccnc(N)c2)nn1 [Compound 40]
> 1	COC(=O)c1cc(F)c(F)cc1NC(=O)c1nnc(-n2ccnc2)cc1C [Compound 43]
> 1	COC(=O)NCc1cc(C(=O)Nc2cc(Cl)c(Cl)cc2C(=O)OC)nnc1-n1ccnc1 [Compound 47]
> 1	O=C(Nc1cc(Cl)c(Cl)cc1C(=O)O)c1ccc(-c2cn[nH]c2)nn1 [Compound 49]
> 20	C#Cc1cc(NC(=O)c2cnc(-c3cn[nH]c3)cn2)c(C(=O)OC)cc1F [Compound 55]
> 20	C#Cc1cc(NC(=O)c2ncc(-c3cn[nH]c3)cn2)c(C(=O)OC)cc1F [Compound 56]
< 0.9	COC(=O)c1cc(F)c(F)cc1NC(=O)c1ccc(-c2cn[nH]c2)nn1 [Compound 58]
